Values joined by “and” are separate entries in the source; they are usually repeats but may differ in a detail not shown here. Equal entries are not always repeated. Where two headings read alike, the source gives them in different places.
How the values were obtained:
HIV-1BaL = assay: Antiviral activity on in vitro HIV-1 infected PBMC cultures, Gag p24 ELISA (Example 209); assay type: cell-based; details: Human immunodeficiency virus 1, 144 h, PHA-stimulated human PBMC infected with HIV-1BaL, six days with IL-2, Gag p24
Description: Antiretroviral activity was assessed by testing the TLR7 modulating compounds (Compounds of Example 4 and Example 49) in total human PBMC cultures that were first treated with mitogen (phytohemogglutinin A) for two days prior to infection with HIV-1BaL. Infected cells were cultured in the presence of interleukin-2 and various concentrations of the TLR7 modulating compounds or the nucleoside analog HIV-1 reverse transcriptase inhibitor azidothymidine (AZT, positive control) for six days. At the end of the incubation period, cell-free culture supernatants were harvested and antiviral activity determined by measuring production of HIV-1 Gag p24 by commercially available ELISA kits.

[1] = tested on: HIV-1 expression in PBMC cultures from HIV-1 infected donors on cART; assay: Induced HIV-1 expression in PBMC cultures from HIV-1 infected donors on cART (Example 208); assay type: cell-based, human; details: for fold induction at 0.01 µM / fold induction at 0.1 µM / fold induction at 0.156 µM / fold induction at 1 µM / fold induction at 2.5 µM / fold induction at 10 µM: Human immunodeficiency virus 1, PBMC; for fold induction at 0.01 µM: read-out: Fold HIV-1 Induction, Geometric Mean, 0.01 μM; for fold induction at 0.01 µM / fold induction at 0.156 µM / fold induction at 2.5 µM: donors 152-155; for fold induction at 0.1 µM: read-out: Fold HIV-1 Induction, Geometric Mean, 0.1 μM; for fold induction at 0.1 µM / fold induction at 1 µM: donors 122, 124-128; for fold induction at 0.156 µM: read-out: Fold HIV-1 Induction, Geometric Mean, 0.156 μM; for fold induction at 1 µM: read-out: Fold HIV-1 Induction, Geometric Mean, 1 μM; for fold induction at 2.5 µM: read-out: Fold HIV-1 Induction, Geometric Mean, 2.5 μM; for fold induction at 10 µM: read-out: Fold HIV-1 Induction, Geometric Mean, 10 μM, donors 124-127; for patients whose cultures showed two-fold or higher activation over the DMSO control: 4 to 5 days, with elvitegravir and efavirenz 100 nM each
Description: Isolated PBMCs were treated with various concentrations (0.1, 1, and 10 μM) of the TLR7 modulating compounds (compounds of Example 4 and Example 49) or dimethyl sulfoxide (DMSO) treated (vehicle control) for 4 to 5 days. The cultures were maintained in the presence of antivirals (elvitegravir and efavirenz at 100 nM each) to prevent viral spread and amplification in order to measure initial virus production (latency reversal) created by the TLR7 modulating compounds. At the end of the incubation period cell-free culture supernatants were harvested and HIV-1 RNA levels were quantified by the COBAS® AmpliPrep/COBAS® TaqMan HIV-1 Test, v2.0 (Roche).
Using the method described above in Example 208, HIV-1 expression in PBMC cultures derived from four additional HIV-1 infected donors on cART were tested in the presence of the compounds of Examples 4, 29, 120, 121, 122, 123, 124, resiquimod, and imiquimod.

[2] = tested on: CD3+CD8+ lymphocytes in PBMC cultures from healthy and HIV-1 infected donors; assay: In vitro lymphocyte subset activation in PBMC cultures, CD69 on CD8+ lymphocytes (Example 207); assay type: cell-based, human; details: 24 hours; for CD69 Expression on CD3+CD8+ Lymphocytes, Mean Maximum Expression Background Subtracted: mean of donors 120-123; for CD69 Expression on CD3+CD8+ Lymphocytes, Maximum Expression (Actual %) / CD69 Expression on CD3+CD8+ Lymphocytes, Maximum Expression Background Subtracted: per donor, PBMC cultures
Description: (§1) Total PBMC cultures were treated with various concentrations of the identified TLR7 modulating compounds (Compounds of Example 4 and Example 49) for 24 hours. At the end of the incubation period, total PBMC were harvested and stained with antibodies conjugated to specific fluorophores to delineate human CD4 lymphocytes (CD3+CD4+CD8−) or CD8 lymphocytes (CD3+CD8+CD4-) and co-expressing the early activation marker CD69. Cells were analyzed by flow cytometry and data collected on an LSR FortessaX20 instrument (BD Biosciences).

[3] = tested on: CD3+CD4+ lymphocytes in PBMC cultures from HIV-1 infected donors; assay: In vitro lymphocyte subset activation in PBMC cultures, CD69 on CD4+ lymphocytes (Example 207); assay type: cell-based, human; details: 24 hours; for CD69 Expression on CD3+CD4+ Lymphocytes, Mean Maximum Expression Background Subtracted: mean of donors 120-123; for CD69 Expression on CD3+CD4+ Lymphocytes, Maximum Expression (Actual %) / CD69 Expression on CD3+CD4+ Lymphocytes, Maximum Expression Background Subtracted: per donor, PBMC from HIV-1 infected donors
Description: as §1

[4] = tested on: polyfunctional proliferating CD8 T cells (CFSE low, IFNg+, TNFa+); assay: Induction of HIV-specific polyfunctional CD8 T cells by combination with an IDO1 inhibitor (Example 217); assay type: cell-based, human; details: 0.1 uM; PBMCs from 4 HIV-infected donors; 8 days
Description: PBMCs from 4 HIV-infected donors (Donor IDs 180-183) on suppressive cART were isolated, as described previously, stained with CFSE, and treated with 500 ng/ml 15-mer peptide pools derived from overlapping HIV gag, pol, nef, and env consensus peptides (JPT Peptide Technologies GmbH). PBMC cultures were treated with DMSO or the compound of Example 49 (GS-9620) at 0.1 uM. In some cultures treated with Example 49, the IDO1 small molecule inhibitor, INCB024360, was combined at 2 μM. Cells were incubated at 37° C. for 8 days, then split into duplicate sets and stained in DPBS with LIVE/DEAD Fixable Aqua Dead Cell Stain (Life Technologies). The immune recall response was performed as previously described. FACS was performed on a LSR Fortessa (BD Biosciences) and data analysis was done with FlowJo software (TreeStar). Data was plotted and statistical analysis was done with GraphPad Prism software (GraphPad).

[5] = tested on: HIV in PBMCs from HIV-infected donors; human Interferon α/β receptor chain 2 blocked; assay: HIV activation with and without IFNα/β receptor block (Example 212); assay type: cell-based; details: Example 49 10 nM to 10 uM with anti-IFNα/β receptor chain 2 mAb MMHAR-2 at 1:500; day 4; 4 donors; p<0.05
Description: PBMCs from HIV-infected donors on suppressive cART were isolated, as before, and treated with the compound of Example 49 (GS-9620) at the doses indicated (10 nM to 10 uM) in the presence or absence of a mouse monoclonal antibody (clone MMHAR-2) against the human Interferon α/β receptor chain 2 (PBL Assay Science, Piscataway, N.J., Cat #21385-1) used at 1:500 dilution. At day 4 after treatment, cell-free culture supernatant was collected and HIV viral RNA was quantitated using the AmliPrep/COBAS® TaqMan® assay. Fold HIV activation in PBMCs from two HIV-infected donors treated with the compound of Example 49 alone and in combination with the anti-IFNα/β mAB (IFNAR block) is depicted in FIG. 8.

[6] = at least 8 independent donors, read-out: Range EC50
[7] = mean ± SD from at least 8 independent donors, read-out: Mean EC50

Structure (SMILES)	EC50 (HIV-1BaL; [6])	EC50 (HIV-1BaL; [7])	Donors with ≥2-fold HIV-1 Induction ([1]; 0.01 μM, Tables 7-11)	Donors with ≥2-fold HIV-1 Induction ([1]; 0.1 μM, Table 6)	Donors with ≥2-fold HIV-1 Induction ([1]; 0.156 μM, Tables 7-11)	Donors with ≥2-fold HIV-1 Induction ([1]; 1 μM, Table 6)	Donors with ≥2-fold HIV-1 Induction ([1]; 2.5 μM, Tables 7-11)	Donors with ≥2-fold HIV-1 Induction ([1]; 10 μM, Table 6)	fold induction at 0.01 µM ([1]; Tables 7-11)	fold induction at 0.1 µM ([1]; Table 6)	fold induction at 0.156 µM ([1]; Tables 7-11)	fold induction at 1 µM ([1]; Table 6)	fold induction at 2.5 µM ([1]; Tables 7-11)	fold induction at 10 µM ([1]; Table 6)	CD69 Expression on CD3+CD8+ Lymphocytes, Mean Maximum Expression Background Subtracted [2]	CD69 Expression on CD3+CD8+ Lymphocytes, Maximum Expression (Actual %) [2]	CD69 Expression on CD3+CD8+ Lymphocytes, Maximum Expression Background Subtracted [2]	CD69 Expression on CD3+CD4+ Lymphocytes, Mean Maximum Expression Background Subtracted [3]	CD69 Expression on CD3+CD4+ Lymphocytes, Maximum Expression (Actual %) [3]	CD69 Expression on CD3+CD4+ Lymphocytes, Maximum Expression Background Subtracted [3]	further results
CCCCOc1nc(N)c2c(n1)N(Cc1ccc(CN3CCCC3)cc1)CC(=O)N2 [Example 4]	0.8 to 81 nM	33 ± 35 nM	4 of 4	4 of 6	4 of 4	3 of 6	4 of 4	3 of 4	4.3	2	5.3	1.6	4	3.9	32%	60% and 44% and 35% and 32%	36% and 30% (2×) and 33%	22%	57% and 41% and 26% and 24%	19% and 21% and 25% and 24%	–
CCCCOc1nc(N)c2c(n1)N(Cc1cccc(CN3CCCC3)c1)CC(=O)N2 [Example 49]	4 to 691 nM	170 ± 240 nM	2 of 4	3 of 6	4 of 4	4 of 6	4 of 4	1 of 4	4	2.3	6.7	2.8	9.4	1.4	31%	55% and 43% and 35% and 32%	31% and 29% and 33% and 30%	22%	59% and 39% and 24% and 25%	21% and 20% and 23% and 24%	increase of mean level of polyfunctional proliferating CD8 T cells compared to DMSO [4]: 2.9 fold; mean maximal reduction of fold HIV activation by IFNAR block [5]: 85%; patients whose cultures showed two-fold or higher activation over the DMSO control ([1]; 0.1 μM): 4 of 6; patients whose cultures showed two-fold or higher activation over the DMSO control ([1]; 1 μM): 3 of 6; patients whose cultures showed two-fold or higher activation over the DMSO control ([1]; 10 μM): 1 of 4
